In US10253060B2, “Terpenoid derivatives” (Daiichi Sankyo Company, Limited, priority 2013, dated 2019):

Tests used:
[1] = system: NQO1; experiment: NQO1 assay in Hepa1c1c7 cells; type: cell-based, mouse; details: approx. 48 hours, mean of 3 wells
Protocol: Hepa1c1c7 cells (mouse hepatic cell line, ATCC, catalog No. CRL-2026) were cultured (5% CO2, 37° C.). A DMEM (Life Technologies Japan Ltd., catalog No. 11965-092) medium also containing 10% inactivated FBS was used. The medium contained 100 units/mL (final concentration) penicillin and 100 μg/[…] (final concentration) streptomycin. The NQO1 assay was conducted according to previous reports (Anal Biochem 1998; 169: 328-; and Methods Enzymol 2004; 382: 243-).
The Hepa1c1c7 cells were seeded at 10000 cells/well in a 96-well plate. The amount of the medium was 100 μL. Approximately 24 hours later, the medium was replaced with a medium containing CDDO-Me or each of terpenoid derivatives A to G, followed by further culture for approximately 48 hours. A lysis solution (a solution containing 2 mM EDTA and 0.8% digitonin), a reaction solution (a solution containing 0.025 M of tris-HCl, 0.067% of albumin, 0.01% of Tween-20, 2 U/mL of glucose-6-phosphate dehydrogenase, 5 μM of flavin adenine dinucleotide, 1 […], 30 μM of nicotinamide adenine dinucleotide phosphate, 0.03% of 3-(4,5-dimethyl-2-thiazolyl)-2,5-diphenyltetrazolium bromide (MTT), and 50 μM of menadione), and a stop solution (a solution containing 0.3 mM dicumarol and 5 mM potassium dihydrogen phosphate, pH 7.4) were prepared. After removal of the medium, 50 μL of the lysis solution was added thereto, and the mixture was left standing at 37° C. for 10 minutes. The reaction mixture was further shaken at room temperature for 10 minutes.
Two hundred μL of the solution was added thereto, and the mixture was left standing at room temperature for 5 minutes. Fifty μL of the stop solution was added thereto, and the absorbance at 490 nm was measured.
The test results were analyzed using Prism (GraphPad Software, Inc., Ver. 5) to calculate the CD value of the concentration at which the activity of NQO1 was increased 2-fold. Each group consisted of 3 wells and indicated as a mean of CD values.

[2] = system: ARPE-19 cells; experiment: Cytotoxicity, LDH-Cytotoxic Test in ARPE-19 cells; type: cell-based, human; details: 10 μM, approx. 16 hours, 3 wells
Protocol: ARPE-19 cells (human retinal pigment epithelium cell line, ATCC, catalog No. CRL-2302) were cultured (5% CO2, 37° C.). A DMEM/F12 (Life Technologies Japan Ltd., catalog No. 11330-032) mixed medium containing 10% inactivated FBS was used. The medium contained 100 units/mL (final concentration) penicillin and 100 μg/[…] (final concentration) streptomycin.
The ARPE-19 cells were seeded at 5000 cells/well in a 96-well plate. The amount of the medium was 50 μL. Approximately 3 hours later, 50 μL of a medium containing CDDO-Me or each of terpenoid derivatives A to H was added thereto, followed by culture for approximately 16 hours. Then, cytotoxicity was evaluated using LDH-Cytotoxic Test (Wako Pure Chemical Industries, Ltd., catalog No. 299-50601). The evaluation method followed the attached document. Each group consisted of 3 wells and was indicated as cytotoxicity at the concentration of 10 μM. The means thereof were 43% for CDDO-Me, 2% for terpenoid derivative A, 2% for terpenoid derivative B, 2% for terpenoid derivative C, 1% for terpenoid derivative D, 2% for terpenoid derivative E, 3% for terpenoid derivative F, 3% for terpenoid derivative G, and 1% for terpenoid derivative H. Terpenoid derivatives A to H were low in cytotoxicity as compared with CDDO-Me.

Row | Compound | CD value (concentration at which the activity of NQO1 was increased 2-fold) [1] [nM] | cytotoxicity (LDH-Cytotoxic Test), mean [2] [%]
1 | COC(=O)[C@]12CC[C@@](C)(CO)C[C@H]1[C@H]1C(=O)C=C3[C@@]4(C)[C@H]5O[C@@]5(C#N)C(=O)C(C)(C)[C@@H]4CC[C@@]3(C)[C@]1(C)CC2 [terpenoid derivative D] | 0.9 | 1
2 | COC(=O)[C@@]12CC[C@]3(C)[C@H](C(=O)C=C4[C@@]5(C)[C@H]6O[C@@]6(C#N)C(=O)C(C)(C)[C@@H]5CC[C@]43C)[C@@H]1CC(C)(C)C(=O)C2 [terpenoid derivative C] | 0.4 | 2
3 | CC1(C)CC(O)[C@]2(C(N)=O)CC[C@]3(C)[C@H](C(=O)C=C4[C@@]5(C)C6OC6(C#N)C(=O)C(C)(C)[C@@H]5CC[C@]43C)[C@@H]2C1 (stereo partly shown) [terpenoid derivative E] | 2.1 | 2
4 | CC1(C)C[C@H]2[C@H]3C(=O)C=C4[C@@]5(C)C6OC6(C#N)C(=O)C(C)(C)[C@@H]5CC[C@@]4(C)[C@]3(C)CC[C@@]2(C#N)CC1O (stereo partly shown) [terpenoid derivative F] | 0.1 | 3
5 | COC(=O)[C@]12CCC(C)(C)C[C@H]1[C@H]1C(=O)C=C3[C@@]4(C)C5OC5(C#N)C(=O)C(C)(C)[C@@H]4CC(O)[C@@]3(C)[C@]1(C)CC2 (stereo partly shown) [terpenoid derivative H] | – | 1
6 | COC(=O)[C@]12CC[C@](C)(CO)C[C@H]1[C@H]1C(=O)C=C3[C@@]4(C)[C@H]5O[C@@]5(C#N)C(=O)C(C)(C)[C@@H]4CC[C@@]3(C)[C@]1(C)CC2 [terpenoid derivative A] | 1.3 | 2
7 | CC1(C)C[C@H]2[C@H]3C(=O)C=C4[C@@]5(C)C=C(C#N)C(=O)C(C)(C)[C@@H]5CC[C@@]4(C)[C@]3(C)CC[C@@]2(C#N)CC1O (stereo partly shown) [terpenoid derivative G] | 0.1 | 3
